Test results taken from US9079913B2, “Spiro-oxindole MDM2 antagonists” (The Regents of the University of Michigan, priority 2009, dated 2015).
Like-named read-outs stand apart in the source and are kept apart here.

Key:
[1] = system: Isogenic HCT-116 colon cancer cell lines; test: cells; assay type: cell-based;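 also: cells grown in 96-well plates in McCoy's 5A medium with 10% FBS, exposed to compound for 4 days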
Description: Cells were seeded in 96-well flat bottom cell culture plates at a density of 2−3×10^3 cells/well with compounds and incubated for 4 days.

[2] = biological target: recombinant human His-tagged MDM2 protein (residues 1-118) (Homo sapiens (Human), UniProt Q00987); test: Fluorescence-polarization MDM2 binding assay;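 also: fluorescence polarization read after three hours of incubation in potassium phosphate buffer containing bovine gamma globulin and Triton X-100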
[3] = system: cancer cell lines with wild-type p53 / mutated or deleted p53 (ATCC); test: Cell growth assay (WST-8), other cancer cell lines; assay type: cell-based
[4] = Homo sapiens, HCT-116, read-out: HCT-116 (p53-/-) IC50, Table 19A, HCT-116 p53-/-, cell growth
[5] = Homo sapiens, HCT-116, read-out: HCT-116 (p53 wild-type) IC50, Table 19A, HCT-116 p53 wild-type, cell growth
[6] = Table 19A, FP binding assay, read-out: MDM2 IC50
[7] = Homo sapiens, LNCaP, Table 19A, LNCAP cells, p53 wild-type, cell growth, read-out: LNCAP (p53 wild-type) IC50
[8] = Homo sapiens, PC-3, Table 19A, PC-3 cells, deleted p53, cell growth, read-out: PC-3 (deleted p53) IC50
[9] = Table 19B, read-out: Binding affinities to MDM2 protein as determined by FP based assay IC50
[10] = Homo sapiens, HCT-116, read-out: Inhibition of cell growth IC50, HCT116 p53 KO, Table 19B, HCT116 p53 KO
[11] = Homo sapiens, HCT-116, read-out: Inhibition of cell growth IC50, HCT116 p53 WT, Table 19B, HCT116 p53 WT
[12] = Homo sapiens, LNCaP, Table 19B, LNCaP cells, read-out: Inhibition of cell growth IC50, LNCaP
[13] = Homo sapiens, PC-3, Table 19B, PC3 cells, read-out: Inhibition of cell growth IC50, PC3
[14] = Homo sapiens, HCT-116, read-out: HCT116p53KO IC50, Table 19D, HCT116 p53KO
[15] = Homo sapiens, HCT-116, read-out: HCT116p53WT IC50, Table 19D, HCT116 p53WT
[16] = Table 19D, read-out: MDM2 Binding Affinities IC50
[17] = Homo sapiens, LNCaP, Table 19D, LNCaP cells, read-out: LNCaP IC50
[18] = Homo sapiens, PC-3, Table 19D, PC3 cells, read-out: PC3 IC50
[19] = Homo sapiens, Table 19D, SJSA-1 cells, unit inferred, read-out: SJSA-1

recombinant human His-tagged MDM2 protein (residues 1-118), sequence (Q00987 1-118): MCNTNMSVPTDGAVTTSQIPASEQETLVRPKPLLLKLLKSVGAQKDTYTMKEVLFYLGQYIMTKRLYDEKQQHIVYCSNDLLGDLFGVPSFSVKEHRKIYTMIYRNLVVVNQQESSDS

SMILES: CC(O)C(O)CCNC(=O)[C@@H]1N[C@H](CC(C)(C)C)[C@]2(C(=O)Nc3cc(Cl)c(F)cc32)[C@H]1c1cccc(Cl)c1 (stereo partly drawn) [MI-519-30]
- IC50 [1, 4]: 19.6 ± 5.2 µM
- IC50 [1, 5]: 1.3 ± 0.3 µM
- IC50 [2, 6]: < 2 µM
- IC50 [3, 7]: 1.1 µM
- IC50 [3, 8]: 19.1 ± 2.4 µM

SMILES: CC(C)(C)C[C@H]1N[C@@H](C(=O)NCC[C@H]2CC[C@@H](O)C2)[C@H](c2cccc(Cl)c2F)[C@@]12C(=O)Nc1cc(Cl)ccc12 [MI-754]
- IC50 ([1]; read-out: Inhibition of cell growth IC50, HCT116 p53 KO, Table 19B, HCT116 p53 KO): > 5 µM
- IC50 ([1]; read-out: Inhibition of cell growth IC50, HCT116 p53 WT, Table 19B, HCT116 p53 WT): < 3 µM
- IC50 [2, 9]: < 1 µM
- IC50 ([3]; Table 19B, LNCaP cells, read-out: Inhibition of cell growth IC50, LNCaP): < 3 µM
- IC50 ([3]; Table 19B, PC3 cells, read-out: Inhibition of cell growth IC50, PC3): > 5 µM

SMILES: CC(C)CC(C)(C)C[C@H]1N(C)[C@@H](C(=O)NCC[C@H](O)CO)[C@H](c2cccc(Cl)c2)[C@@]12C(=O)Nc1cc(Cl)c(F)cc12 [MI-726]
- IC50 [1, 10]: 8 ± 0.8 µM
- IC50 [1, 11]: 2.3 ± 0.8 µM
- IC50 [2, 9]: < 5 µM
- IC50 [3, 12]: 2.3 ± 0.3 µM
- IC50 [3, 13]: 5.1 ± 1.4 µM

SMILES: CC(C)(C)C[C@H]1N[C@@H](C(=O)N[C@@H]2CCN(CCF)C[C@@H]2F)[C@H](c2cccc(Cl)c2F)[C@@]12C(=O)Nc1cc(Cl)ccc12 [MI-519-59]
- IC50 [1, 14]: > 10 µM
- IC50 [1, 15]: < 1 µM
- IC50 [2, 16]: < 1 µM
- IC50 [3, 17]: < 3 µM
- IC50 [3, 18]: > 10 µM
- IC50 [3, 19]: < 3 µM

SMILES: CC(C)(C)C[C@H]1N[C@@H](C(=O)NCCN2CCC(O)CC2)[C@H](c2cccc(Cl)c2)[C@@]12C(=O)Nc1cc(Cl)c(F)cc12 [MI-759]
- IC50 [1, 4]: 5.2 ± 1 µM
- IC50 [1, 5]: 1.4 ± 0.6 µM
- IC50 [2, 6]: < 1 µM
- IC50 [3, 7]: 1.4 ± 0.1 µM
- IC50 [3, 8]: 5.5 ± 2.3 µM

SMILES: O=C(NCC[C@H](O)CO)[C@@H]1N[C@H](CCc2cccs2)[C@]2(C(=O)Nc3cc(Cl)c(F)cc32)[C@H]1c1cccc(Cl)c1 [MI-703]
- IC50 [1, 10]: 4.3 ± 1.6 µM
- IC50 [1, 11]: 1 ± 0.2 µM
- IC50 [2, 9]: > 1 µM
- IC50 [3, 12]: 0.2 µM
- IC50 [3, 13]: 3.9 ± 0.5 µM

SMILES: CN(C)CC(=O)N1CCN(C(=O)[C@@H]2N[C@H](CC(C)(C)C)[C@]3(C(=O)Nc4cc(Cl)c(F)cc43)[C@H]2c2cccc(Cl)c2)CC1 [MI-744]
- IC50 [1, 4]: 5.7 ± 3.4 µM
- IC50 [1, 5]: 2.4 ± 0.2 µM
- IC50 [2, 6]: < 10 µM
- IC50 [3, 7]: 1.7 ± 0.1 µM
- IC50 [3, 8]: 7.7 ± 3.1 µM

SMILES: CC(C)CC(C)(C)C[C@H]1N(C)[C@@H](C(=O)NCC[C@H](O)CO)[C@H](c2ccc(F)c(Cl)c2)[C@@]12C(=O)Nc1cc(F)c(F)cc12 [MI-738]
- IC50 [1, 10]: 8.2 ± 0.6 µM
- IC50 [1, 11]: 8.5 ± 2.1 µM
- IC50 [2, 9]: > 3 µM
- IC50 [3, 12]: 4.8 ± 1 µM
- IC50 [3, 13]: 8.5 ± 0.6 µM

SMILES: CC(C)(C)C[C@H]1N[C@@H](C(=O)NC2CCN(CCC(F)(F)F)CC2)[C@H](c2cccc(Cl)c2F)[C@@]12C(=O)Nc1cc(Cl)ccc12 [MI-519-57-1]
- IC50 [1, 14]: 9.5 µM
- IC50 [1, 15]: < 3 µM
- IC50 [2, 16]: < 1 µM
- IC50 [3, 17]: < 3 µM
- IC50 [3, 18]: 8.8 µM
- IC50 [3, 19]: < 3 µM

SMILES: CN1[C@@H](C(=O)NCC[C@H](O)CO)[C@H](c2cccc(Cl)c2)[C@@]2(C(=O)Nc3cc(F)ccc32)[C@H]1CC(C)(C)C [MI-519-15-me]
- IC50 [1, 14]: > 10 µM
- IC50 [1, 15]: 5.2 µM
- IC50 [2, 16]: < 5 µM
- IC50 [3, 17]: 6.4 µM
- IC50 [3, 18]: > 10 µM

SMILES: CNC[C@@H](O)CCNC(=O)[C@@H]1N[C@H](CC(C)(C)C)[C@]2(C(=O)Nc3cc(Cl)c(F)cc32)[C@H]1c1ccc(F)c(Cl)c1 [MI-319-30]
- IC50 ([1]; Homo sapiens, HCT-116, read-out: Cell growth inhibition using WST assay, HCT116 p53KO IC50, Table 19C, HCT116 p53KO): > 10 µM
- IC50 ([1]; Homo sapiens, HCT-116, read-out: Cell growth inhibition using WST assay, HCT116 p53WT IC50, Table 19C, HCT116 p53WT): > 10 µM
- IC50 ([2]; Table 19C, read-out: Bidning affinities to MDM2 as determined using FP assay IC50): < 5 µM
- IC50 ([3]; Homo sapiens, LNCaP, Table 19C, LNCaP cells, read-out: Cell growth inhibition using WST assay, LNCaP IC50): > 5 µM
- IC50 ([3]; Homo sapiens, PC-3, Table 19C, PC3 cells, read-out: Cell growth inhibition using WST assay, PC3 IC50): > 10 µM

SMILES: CC(C)(C)C[C@H]1N[C@@H](C(=O)NCC2CC(O)C(O)C2)[C@H](c2cccc(Cl)c2)[C@@]12C(=O)Nc1cc(Cl)c(F)cc12 (stereo partly drawn) [MI-519-36]
- IC50 [1, 4]: 29.8 ± 6.5 µM
- IC50 [1, 5]: 1.2 ± 0.6 µM
- IC50 [2, 6]: < 1 µM
- IC50 [3, 7]: 0.9 ± 0.1 µM
- IC50 [3, 8]: 20.6 ± 5.3 µM

SMILES: CC(C)(C)C[C@H]1N[C@@H](C(=O)NCCC2CCC(O)C2)[C@H](c2cccc(Cl)c2)[C@@]12C(=O)Nc1cc(F)c(F)cc12 (stereo partly drawn) [MI-519-25]
- IC50 [1, 14]: > 10 µM
- IC50 [1, 15]: < 3 µM
- IC50 [2, 16]: < 3 µM
- IC50 [3, 17]: < 5 µM
- IC50 [3, 18]: > 10 µM

SMILES: CC(C)(C)C[C@H]1N[C@@H](C(=O)NCCCO)[C@H](c2cccc(Cl)c2)[C@@]12C(=O)Nc1cc(Cl)c(F)cc12 [MI-219-M8]
- IC50 [1, 14]: 18 ± 4.1 µM
- IC50 [1, 15]: 1.4 ± 0.9 µM
- IC50 [2, 16]: < 1 µM
- IC50 [3, 17]: 1.1 ± 0.5 µM
- IC50 [3, 18]: 9.2 ± 1.6 µM
